Measurements as given in patent US8969549B2, “Antioxidant small molecules aimed at targeting metal-based oxidative stress in neurogenerative disorders” (Texas Christian University, priority 2013, dated 2015).

What was measured:
[1] = DPPH radical quenching assay; format: biochemical; settings: 1250 μM
Excerpt: (§1) Compound 2 (Chart 2) exists largely as the pyridol tautomer as confirmed by NMR. The reactivity of pyridol/pyridone based compounds such as chelidamic acid have shown reactivity with OH radicals in solution to form bis-pyridones and is a different mechanism than pyridine based compounds such as 1 (Chart 2). This reactivity is attributed to the enhanced antioxidant capacity observed. Chelidamic acid is the pyridone congener to the starting material used to produce 1. Therefore similar methodologies to produce 2 in gram scale quantities were employed.
As radicals are one product of miscompartmentalized metal ions, radical scavenging capability of compounds 1-3 (Chart 4) was tested using the DPPH assay. DPPH (2,2-diphenyl-1-picrylhydrazyl), is a dark purple (λmax=540 nm), stable free radical in solution that can be reduced to DPPHH in the presence of molecules with radical scavenging activity. This process results in a color change from dark purple to light yellow and can be followed spectroscopically by the decrease of the band at 540 nm. Applicants have, therefore, utilized this method to measure radical scavenging capability of their own organic molecules. BHT (butylhydroxytoluene) was used as a positive control due to its known antioxidant properties.
DPPH stock solution was prepared by dissolving 25 mg in 100 mL of absolute EtOH. The working radical solution was prepared by dilution with absolute EtOH to an absorbance of 1.3 at 512 nm. Stock solutions of the compounds tested were dissolved in DI H2O and EtOH 95% respectively and serial dilutions were made to get different concentrations. For the analysis 2 mL of the solutions were incubated with 2 mL of DPPH working solutions in the dark for 24 h. as well as 2 mL of DPPH working solution with 2 mL of H2O or EtOH to serve as blank. Analysis of the solutions was performed as follows: 1 mL of the sample solution was diluted with 1 mL of H2O shaken and the absorbance was measured at 515 nm.

MTT cytotoxicity assay = format: cell-based; settings: mouse, HT-22 hippocampal neuronal cells, HT-22 cells
Procedure: As these compounds show potential for future in vivo studies, the 3-(4,5-dimethythiazol-2-yl)-2,5-diphenyl tetrazolium bromide (MTT) assay was performed in order to test compounds 2, 3 of Chart 4 for cytotoxicity with HT-22 cells, which is a hippocampal neuronal cell line extracted from mice. This is a colorimetric assay that measures the mitochondrial activity of living cells in which MTT crosses into the mitochondria where it is reduced to media insoluble formazan (dark purple), which is later solubilized in DMSO and measured spectroscopically (λmax=540 nm). Since the reduction of MTT can only occur in living cells with undamaged mitochondria, this is a good assay to measure cell proliferation and cytotoxicity.
For the biological assays mouse hippocampal HT-22 cell line was used, incubated them at 37° C. in a humidified atmosphere 5% CO2, with Dulbecco's Modified Eagle Medium (500 ml) containing penicillin/streptomycin 100× (5 ml), Glutamine (100 mM, 5 ml), charcoal strip fetal bovine serum. […]
(§2) (3-(4,5-dimethylthiazol-2-yl)-2,5-diphenyltetrazolium bromide) cells were seeded in a 96 well plate with a density of 5000 cells per well (in 100 μL per well). […] Media is discarded again and 100 μL of DMSO are added to each well, rocked for 5 minutes and the absorbance (A510) was measured using a Molecular Devices Kinetic Microplate Reader.

HT-22 cells = assay: Aβ and Cu^+2 toxicity protection (MTT); format: cell-based, mouse; settings: compound 50 to 120 μM, Aβ 15 μM, copper 15 μM
Procedure: In FIG. 16 one can observe that compound 2 (LC) is capable of protection from ranges of 50 to 120 μM reaching 37% of increase of cell proliferation with respect to the control (Aβ+Cu^+2). It is also shown that Aβ toxicity (15 μM) increases upon addition of copper (15 μM) opening the possibility of explaining the mechanism of action of LC (compound 2) which involves the possible chelation of copper out of the plaques, although the possibility of assessing ROS is always present. The experiment is completed with several controls including just compound 2, (Chart 4) and just copper, for comparison purposes.
The same analysis was performed for compound 3, (Chart 4), keeping the same ranges of concentrations for the compound (50 to 120 μM) as well as amyloid and copper. Restoring of cell proliferation was observed from 3 to 17%. […]
as §2

[2] = cited from earlier work
[3] = LA/DHLA; cited from earlier work
[4] = log K constants with Cu^II; format: binding
Excerpt: (§3) The ligand is the backbone to PCTA, a potential MRI contrast agent explored in recent years and has been repurposed for Applicant's work.

[5] = log K constants with Zn^II; format: binding
Excerpt: as §3

Aβ1-40 [6] = assay: Turbidity assay of metal-induced amyloid aggregation; format: biochemical; settings: for disaggregation of pre-formed metal-induced Aβ1-40 aggregates (turbidity): copper(II) or zinc(II) aggregates, ligand added afterwards
Excerpt: Metal ions (copper and zinc) bind to a histidine rich domain in amyloid producing Aβ in the form of insoluble plaques. This process has been comprehensively studied and described in a number of recent reviews. The aggregation of amyloid can be followed by simple spectroscopic techniques such as turbidity and tyrosine fluorescence studies. These methods were used to investigate the ability of 1 to dissociate pre-formed amyloid aggregates upon addition of metal ions, as well as prevent amyloid aggregation.
Metal ions bind to a histidine rich domain in amyloid producing Aβ in the form of insoluble plaques. This process has been extensively studied and described in a number of recent reviews.

Aβ1-40 [7] = assay: Tyr^10 fluorescence of Aβ1-40; format: biochemical
Excerpt: FIG. 2 is a graph showing the addition of ligands 1-4 to aggregated Aβ results in reconstitution of Tyr^10 fluorescence which was decreased due to aggregate formation.
To further determine the capability of 1 to prevent or disrupt metal-ion induced amyloid aggregation, Applicant's studied Tyr fluorescence intensity. Recent reports have also utilized the natural fluorescence of the native Tyr^10 in the Aβ1-40 sequence to study the conformational dynamics of amyloid folding as it relates to AD and/or production of H2O2. As Tyr^10 is located within proximity to the metal binding pocket in Aβ1-40 the fluorescence intensity of the phenolic side chain decreases during the folding process due to environmental changes that occur locally. This work was supported by circular dichroism spectra, which verified that fluorescence intensity decreased as the conformation of amyloid changed to beta-sheets. […] Applicant's hypothesis was that Tyr fluorescence intensity should be restored to control levels upon addition of compounds 1-4 (Chart 1) to a solution of pre-formed metal aggregates, as shown below in FIG. 2. […] Similar results were also obtained for amyloid samples co-incubated with 1-4 prior to metal ion addition.
The macrocyclic compound 2 (Chart 2) is also a chelator capable of preventing metal-induced amyloid formation as well as disaggregation. Metal ions bind to a histidine rich domain in amyloid producing Aβ in the form of insoluble plaques. This process has been extensively studied and described in a number of recent reviews. […] Moreover, amyloid aggregates formed by metal ion co-incubation can be disaggregated by the addition of compounds 1 or 2 (FIG. 12b).

amyloid aggregates = assay: TEM imaging of copper-induced amyloid aggregates; format: biochemical; settings: incubated 12 hours
Procedure: FIG. 3 is an illustration of TEM Images showing (a) copper induced aggregation of amyloid and (b) its dissolution by 1.
Transmission electron microscopy (TEM) and Scanning Electron Microscopy (SEM) were utilized to study the morphology of the aggregates with and without chelators, as well. […] Aliquots from the stock used to make grid (a) were then incubated with 1 for 12 hours and then prepared for microscopy. The sizes of the aggregates upon treatment with 1 are an average of 1-2 orders of magnitude smaller and observably more diffuse, as shown in grid (b). SEM images also confirm the ability of the chelates to affect aggregate size as well.

[8] = ABTS radical assay standardized against Trolox; format: biochemical; settings: ligand concentration 100 μM
[9] = Cu-ascorbate redox system with coumarin-3-carboxylic acid (CCA); format: biochemical
Excerpt: As increased levels of ROS are associated with AD, Applicant's set out to investigate the antioxidant character of 1 compared to the heterocycles 2 and/or 3. […] Moreover, many of the pathways proposed to produce ROS leading to AD pathology involve metal ions. Applicant's therefore utilized the Cu-ascorbate redox system, Scheme 1, as a model to determine if the ligands could halt copper based redox activity under aerobic conditions:
Faller and co-workers employed this system to investigate the redox chemistry of amyloid systems with Cu. Coumarin-3-carboxylic acid (CCA), which generates fluorescent 7-hydroxy-CCA in the presence of hydroxyl radicals, was used to quantify the reduction of oxygen by copper redox-cycling in the presence of ascorbate.

FRDA cells [10] = assay: Calcein AM viability assay with BSO; format: cell-based, human; settings: Homo sapiens, 48 hour BSO 1 mM, compound 1 nM final, read-out: cell viability compared to untreated control cells
Procedure: FIG. 5 is a graph showing a Calcien AM viability assay of FRDA cells after 48 hour exposure to BSO [1 mM] with 1-4 [1 nM final].
FIG. 10 is a graph showing Calcein AM viability assay of FRDA cells after 48 hour exposure to BSO [1 mM] followed by addition of 2 [various concentrations].
FRDA cells have higher levels of ROS due to mitochondrial misfunction associated with frataxin expression and therefore serve as a good model for ROS protection. […] Calcein AM, a non-fluorescent, hydrophobic compound that easily permeates intact, live cells, was used as an indicator for cell viability.
This dose response is visualized in the fluorescent cell images shown in FIG. 11 with increased cell survival corresponding to increasing 2 in the nM range.

FRDA cells [11] = assay: DCFH-DA ROS assay with BSO; format: cell-based, human; settings: 12 hours BSO 1 mM, compound 4 nM
Procedure: FIG. 6 is a graph showing DCFH-DA fluorescent response in FRDA cells after 12 hours exposure to BSO [1 mM] with 1-4 [4 nM].
FIG. 7 is a graph of DCFH-DA fluorescent response in FRDA cells after 12 hours exposure to BSO [1 mM] showing dose dependence with 1.
FIG. 9 is a graph of DCFH-DA fluorescent response in FRDA cells after 12 hours exposure to BSO [1 mM] showing dose dependence with 1 and 2.
The antioxidant activity of compound 1 compared to compounds 2-3 (Chart 1) was then studied using the cell-permeable fluorophore 2,7′-Dichlorodihydrofluorescin diacetate (DCFH-DA) as an indicator for ROS. DCFH-DA diffuses into cells and is deacetylated by cellular esterases to non-fluorescent 2′,7′-Dichlorodihydrofluorescin (DCFH). This species is subsequently oxidized to the highly fluorescent 2′,7′-Dichlorodihydrofluorescein (DCF) species in the presence of ROS. The fluorescent intensity is directly proportional to the amount of ROS present in cell cytosol. BSO (2-amino-4-(butylsulfonimidoyl)butanoic acid) was used to inhibit the first step of de novo glutathione synthesis, allowing us to observe the elevated intra-cellular [ROS] are thereby observed.
Cellular studies were carried out to evaluate the intra-cellular antioxidant efficacy and toxicity of compound 2 (Chart 2) compared to 1 using the cell-permeable fluorophore 2,7′-dichlorodihydrofluorescin diacetate (DCFH-DA) as an indicator for ROS. DCFH-DA diffuses into cells and is deacetylated by cellular esterases to non-fluorescent 2′,7′-dichlorodihydrofluorescin (DCFH) which is subsequently oxidized to the highly fluorescent 2′,7′-dichlorodihydrofluorescein (DCF) species in the presence of ROS. The fluorescence intensity is directly proportional to the amount of ROS present in cell cytosol.^11 BSO (2-amino-4-(butylsulfonimidoyl)butanoic acid) is a commonly used model for oxidative stress via inhibition of cytosolic glutathione synthesis resulting in elevated intra-cellular [ROS] and an increased fluorescent signal in the presence of DCFH (FIG. 9).

two separate cell lines = assay: Preliminary cell-viability screen; format: cell-based
Excerpt: as §1

O=C(CCCCC1CCSS1)N1CCNCCNCCNCC1 (racemic) [Compound 2 (Chart 4), (±)-5-(1,2-dithiolan-3-yl)-1-(1,4,7,10-tetraazacyclododecan-1-yl)pentan-1-one]
quenching of the DPPH radical [1]: equivalent amount of radical | EC50 at 48 h (MTT cytotoxicity assay): 312 µM | increase of cell proliferation with respect to the control (Aβ+Cu^+2) (HT-22 cells): 37%

O=C(O)CCCC[C@@H](S)CCS (racemic) [DHLA, dihydrolipoic acid]
pKa [2]: 4.7 | redox potential [3]: −320 mV

c1cc2nc(c1)CNCCNCCNC2 [1 (Chart 1), pyclen]
log K constants Cu^II [4]: 20 | log K constants Zn^II [5]: 14 | disaggregation of pre-formed metal-induced Aβ1-40 aggregates (turbidity) (Aβ1-40 [6]): reversed | disaggregation of pre-formed metal-induced Aβ1-40 aggregates (turbidity) (Aβ1-40 [6]; listed as 1 (Chart 2)): disaggregated | prevention of metal-induced Aβ1-40 aggregation (turbidity) (Aβ1-40 [6]; ligand co-incubated with amyloid before copper(II) or zinc(II) addition): prevents formation of aggregations | reconstitution of Tyr^10 fluorescence of aggregated Aβ1-40 (Aβ1-40 [7]; ligand added to pre-formed metal aggregates): equally effective | prevention of loss of Tyr^10 fluorescence of Aβ1-40 (Aβ1-40 [7]; ligand co-incubated prior to metal ion addition, 24 hours): equally effective | decrease of amyloid aggregate size compared to the copper aggregates (TEM) (amyloid aggregates): 1-2 orders of magnitude | Trolox equivalents (ABTS radical) [8]: 0.4 Trolox equivalents | OH. generation measured as 7-hydroxy-CCA fluorescence, ligand co-incubated ([9]; CCA 100 uM, ascorbate 300 uM, Cu^II 40 uM): prevented entirely | 7-hydroxy-CCA signal after addition to running Cu-ascorbate system ([9]; added after two minutes co-incubation with CCA): leveling of the 7-hydroxy-CCA signal | viability at 0.001 µM (FRDA cells [10]): > 85% | increase of ROS over the negative control (media) (FRDA cells [11]): 15% | tolerance in cell-viability screen (two separate cell lines): large degree of tolerance
